# Experimental data taken from PubChem BioAssay (NCI).
# “And” between values parts separate entries of the source, which are not always exact repeats. Identical values can stand only once.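 The compound was tested at five concentrations on cells cultured in 96-well plates, with a 48-hour exposure period. The concentration for 50% growth inhibition is given as GI50. TGI: concentration producing complete growth inhibition.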
# Experiments:
# Assay in all cases: inhibition of tumour cell growth, NCI panel, 48 h
# CAKI-1 renal = test system: CAKI-1 renal
# HCC-2998 colon = test system: HCC-2998 colon
# HCT-116 colon = test system: HCT-116 colon
# HOP-62 NSCLC = test system: HOP-62 NSCLC
# MCF7 breast = test system: MCF7 breast
# RPMI-8226 leukemia = test system: RPMI-8226 leukemia
# SR leukemia = test system: SR leukemia
# U251 CNS = test system: U251 CNS
# UACC-257 melanoma = test system: UACC-257 melanoma
# UO-31 renal = test system: UO-31 renal
Compound,GI50 (CAKI-1 renal),TGI (CAKI-1 renal),GI50 (HCC-2998 colon),TGI (HCC-2998 colon),GI50 (HCT-116 colon),TGI (HCT-116 colon),GI50 (HOP-62 NSCLC),TGI (HOP-62 NSCLC),GI50 (MCF7 breast),TGI (MCF7 breast),GI50 (RPMI-8226 leukemia),TGI (RPMI-8226 leukemia),GI50 (SR leukemia),TGI (SR leukemia),GI50 (U251 CNS),TGI (U251 CNS),GI50 (UACC-257 melanoma),TGI (UACC-257 melanoma),GI50 (UO-31 renal),TGI (UO-31 renal)
O=C1OC(C(O)CO)C(O)=C1O (configuration not stated),1880 µM and 2150 µM,3350 µM and 4620 µM,> 10000 µM,> 10000 µM,250 µM and 641 µM,534 µM and 2110 µM,2420 µM and 2940 µM,4800 µM and 6210 µM,233 µM and 489 µM,502 µM and 1100 µM,1910 µM and 2400 µM,4500 µM and 6610 µM,349 µM and 292 µM,877 µM and 924 µM,1910 µM and 1840 µM,3400 µM and 3550 µM,1870 µM and > 3610 µM,3730 µM and > 5150 µM,1760 µM and 1380 µM,3170 µM and 2720 µM
Cc1cc(C#Cc2ccc(C(C)(C)C)cc2)ccc1-n1c(/C=C/c2ccc(O)cc2O)nc2ccccc2c1=O,2.87 µM,16.2 µM,1.93 µM,3.85 µM,2.89 µM,10.8 µM,5.88 µM,20.5 µM,2.39 µM,9.06 µM,3.1 µM,26.9 µM,2.45 µM,6.49 µM,2.11 µM,6.03 µM,6.92 µM,20.4 µM,2.63 µM,15.5 µM
COc1cc2nc(-c3cc(F)ccc3O)nc(N[C@@H]3CNC[C@H]3C(C)(C)O)c2cc1OC,1 µM,2.54 µM,1.92 µM,3.47 µM,1.35 µM,2.75 µM,1.26 µM,2.76 µM,1.51 µM,3.07 µM,2.15 µM,5.14 µM,1.27 µM,3.62 µM,1.62 µM,3.06 µM,1.69 µM,3.15 µM,1.56 µM,3.21 µM
OCCNC1c2cc(Cl)ccc2-c2c(Cl)cc(Cl)cc21 (configuration not stated),–,> 100 µM,–,> 100 µM,–,> 100 µM,–,> 100 µM,–,53.8 µM,–,> 100 µM,–,44.9 µM,–,> 100 µM,–,> 100 µM,–,> 100 µM
CCN(CC)CCCCCCNc1cc(OC)cc2cccnc12,12.4 µM,26.6 µM,2.32 µM,5 µM,1.93 µM,3.55 µM,2.06 µM,5.11 µM,1.74 µM,3.56 µM,2.38 µM,5.45 µM,1.99 µM,4.1 µM,2.38 µM,5.2 µM,20.2 µM,36.8 µM,11.5 µM,29.5 µM
Nc1nc(Nc2ccccc2SSc2ccccc2Nc2nc(N)nc(C(Cl)(Cl)Cl)n2)nc(C(Cl)(Cl)Cl)n1,3.01 µM,10.5 µM,30.1 µM,> 100 µM,4.82 µM,16.9 µM,2.07 µM,6.33 µM,6.46 µM,33 µM,2.94 µM,10.2 µM,1.63 µM,3.76 µM,2.29 µM,5.85 µM,11.7 µM,92.9 µM,1.56 µM,3 µM
O=C(O)c1cccc(C(=O)O)c1S(=O)Cc1ccccc1 (configuration not stated),–,> 100 µM,–,> 100 µM,–,> 100 µM,–,> 100 µM,–,> 100 µM,–,> 100 µM,–,> 100 µM,–,> 100 µM,–,> 100 µM,–,> 100 µM
C/C(=C\c1cnc(C)s1)[C@@H]1C[C@@H]2O[C@@H]2CCC[C@H](C)[C@H](O)[C@@H](C)C(=O)C(C)(C)[C@@H](O)CC(=O)O1,–,–,0.0103 µM,> 100 µM,< 0.01 µM,> 100 µM,< 0.0127 µM,> 100 µM,< 0.01 µM,> 100 µM,< 0.01 µM,> 100 µM,< 0.01 µM,> 100 µM,< 0.01 µM,> 100 µM,–,–,< 0.0105 µM,> 100 µM
CN(CCNCc1ccccn1)CCNCc1ccccn1,–,–,2.17 µM,4.64 µM,2.18 µM,4.7 µM,3.85 µM,22.6 µM,3.08 µM,10.9 µM,3.41 µM,67.6 µM,3.71 µM,43 µM,3.48 µM,12 µM,1.97 µM,3.85 µM,1.73 µM,3.9 µM
O=C1c2sccc2-c2cccc3cccc1c23 (tested in a mixture with another compound),–,24.2 µM,–,–,–,> 100 µM,–,> 100 µM,–,> 100 µM,–,0.668 µM,–,2.02 µM,–,23 µM,–,38.9 µM,–,78.3 µM
COc1cc2c(cc1OC)-c1ncc3c(OC)c(OC)c(OC)cc3c1C2,55.2 µM,> 100 µM,47.7 µM,> 100 µM,8.81 µM,64.7 µM,16 µM,29.4 µM,4.14 µM,18.7 µM,2.5 µM,32.3 µM,0.609 µM,2.47 µM,15.8 µM,33 µM,–,–,3.41 µM,15.7 µM
CCCCCO/N=C\c1c2c(O)c3c(O)c(C)c4c(c3c1O)C(=O)C(C)(O/C=C\C(OC)C(C)C(OC(C)=O)C(C)C(O)C(C)C(O)C(C)/C=C\C=C(\C)C(=O)N2)O4 (configuration not stated),1.91 µM,4.5 µM,1.65 µM,3.08 µM,1.65 µM,3.01 µM,1.65 µM,3.04 µM,1.71 µM,3.54 µM,2.34 µM,6.69 µM,2.88 µM,7.34 µM,1.84 µM,3.54 µM,2.3 µM,6.19 µM,–,–
Cc1cc(N(CCCNc2ccnc3cc(Cl)ccc23)Cc2ccco2)nc(N2CCN(C)CC2)n1,–,–,1.98 µM,4.88 µM,2.48 µM,10.7 µM,3.65 µM,14.3 µM,3.01 µM,13.9 µM,2.09 µM,5.15 µM,2.08 µM,5.62 µM,2.67 µM,6.92 µM,1.97 µM,3.8 µM,2.02 µM,5.33 µM
